Assays:
Type in all cases: cell-based
[1] = target: T1, Peroxisome proliferator-activated receptor gamma (Homo sapiens, UniProt P37231); test: Agonist activity at human PPARgamma transfected in african green monkey COS7 cells assessed transactivation incubated for 16 hrs by luciferase assay
T1 sequence (P37231 whole entry): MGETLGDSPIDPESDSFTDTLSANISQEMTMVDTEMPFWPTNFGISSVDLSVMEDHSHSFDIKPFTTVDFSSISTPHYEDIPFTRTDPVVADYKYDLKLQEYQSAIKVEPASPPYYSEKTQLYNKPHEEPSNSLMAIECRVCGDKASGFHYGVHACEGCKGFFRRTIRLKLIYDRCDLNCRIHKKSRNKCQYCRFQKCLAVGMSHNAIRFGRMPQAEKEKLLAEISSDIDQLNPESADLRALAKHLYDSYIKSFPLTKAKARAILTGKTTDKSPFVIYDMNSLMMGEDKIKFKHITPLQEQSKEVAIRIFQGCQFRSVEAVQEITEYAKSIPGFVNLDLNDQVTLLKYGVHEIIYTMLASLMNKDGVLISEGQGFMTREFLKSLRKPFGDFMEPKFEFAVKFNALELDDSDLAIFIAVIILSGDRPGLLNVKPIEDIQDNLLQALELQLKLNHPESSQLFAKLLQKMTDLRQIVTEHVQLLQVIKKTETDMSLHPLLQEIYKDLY

[2] = target: T2, Peroxisome proliferator-activated receptor alpha (Homo sapiens, UniProt Q07869); test: Agonist activity at human PPARalpha transfected in african green monkey COS7 cells assessed transactivation incubated for 16 hrs by luciferase assay
T2 sequence (Q07869 whole entry): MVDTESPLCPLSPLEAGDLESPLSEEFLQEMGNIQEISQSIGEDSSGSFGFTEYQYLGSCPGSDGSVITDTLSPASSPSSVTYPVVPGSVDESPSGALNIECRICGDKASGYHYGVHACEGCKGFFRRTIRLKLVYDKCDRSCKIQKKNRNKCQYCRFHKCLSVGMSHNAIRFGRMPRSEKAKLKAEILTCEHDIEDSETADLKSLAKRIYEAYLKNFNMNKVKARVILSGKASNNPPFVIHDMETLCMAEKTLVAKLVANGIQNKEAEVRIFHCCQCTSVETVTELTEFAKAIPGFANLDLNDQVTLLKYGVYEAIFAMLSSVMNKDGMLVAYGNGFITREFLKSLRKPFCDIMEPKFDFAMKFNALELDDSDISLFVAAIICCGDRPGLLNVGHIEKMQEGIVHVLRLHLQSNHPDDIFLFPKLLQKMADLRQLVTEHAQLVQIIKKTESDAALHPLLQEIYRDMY

[3] = target: Peroxisome proliferator-activated receptor delta (Homo sapiens, UniProt Q03181); test: Agonist activity at human PPARdelta transfected in african green monkey COS7 cells assessed transactivation incubated for 16 hrs by luciferase assay
Chain of Peroxisome proliferator-activated receptor delta (Q03181 whole entry): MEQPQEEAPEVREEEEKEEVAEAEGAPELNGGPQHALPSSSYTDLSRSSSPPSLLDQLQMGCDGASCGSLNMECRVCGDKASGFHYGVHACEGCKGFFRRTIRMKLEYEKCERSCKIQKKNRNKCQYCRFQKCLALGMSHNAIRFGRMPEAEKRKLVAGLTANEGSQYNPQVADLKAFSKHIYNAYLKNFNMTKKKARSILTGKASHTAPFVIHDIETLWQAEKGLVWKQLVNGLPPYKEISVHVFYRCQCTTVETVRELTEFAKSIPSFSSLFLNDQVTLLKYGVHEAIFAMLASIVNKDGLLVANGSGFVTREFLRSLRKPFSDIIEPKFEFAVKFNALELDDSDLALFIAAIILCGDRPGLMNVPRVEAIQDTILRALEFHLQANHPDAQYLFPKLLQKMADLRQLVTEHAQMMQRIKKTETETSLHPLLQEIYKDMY

SMILES | EC50 [1] [nM] | EC50 [2] [nM] | EC50 [3] [nM]
Cc1cc(CN2C(=O)CN(c3ccccc3C(F)(F)F)C2=O)cc(C)c1OC(C)(C)C(=O)O | > 5000 | > 5000 | 
Cc1cc(N2C(=O)CN(c3ccc(C(F)(F)F)cc3)C2=O)cc(C)c1OC(C)(C)C(=O)O | > 5000 |  | 
Cc1cc(Cn2ncn(-c3ccc(OC(F)(F)F)cc3)c2=O)cc(C)c1OC(C)(C)C(=O)O |  | 7.4 | 
Cc1cc(CCN2C(=O)CN(c3ccc(C(F)(F)F)cc3)C2=O)cc(C)c1OC(C)(C)C(=O)O | 277 |  | 

The remaining lines, values ahead:

EC50 [1] [nM] | EC50 [2] [nM] | EC50 [3] [nM] | SMILES
1390 |  |  | Cc1cc(CN2C(=O)CN(c3ccc(OC(F)(F)F)cc3)C2=O)cc(C)c1OC(C)(C)C(=O)O
> 5000 |  | 8.4 | Cc1cc(CN2C(=O)CN(c3ccc(C(F)(F)F)cc3)C2=O)cc(C)c1OC(C)C(=O)O (stereo unspecified)
1170 | 2.7 | 8.2 | CSc1ccc(N2CC(=O)N(Cc3cc(C)c(OC(C)(C)C(=O)O)c(C)c3)C2=O)cc1

— ChEMBL document CHEMBL5338805, “Discovery of the First Subnanomolar PPARα/δ Dual Agonist for the Treatment of Cholestatic Liver Diseases” (J Med Chem, 2023)
